Measured values from paper PMC4868641 (Chemical research in toxicology, 2016).
Each block holds one compound with its values, some of them ahead of it.

Columns and labels:
mice = settings: cited from earlier work
human kidney microsomes [1] = test: P450-mediated N-oxidation in human kidney microsomes; assay type: in vitro ADME; settings: limit of detection 50 pmol/min/mg protein
[2] = pH 7.0; cited from earlier work
calf thymus DNA = test: DNA adduct formation; assay type: biochemical; settings: 0.5 μM, calf thymus DNA 0.4 mg/mL, pH 7.4, 30 min, 37 °C
[3] = system: human microsomes (liver, kidney, colon, rectum); assay type: in vitro ADME; settings: 1 μM, pH 7.5
UGT1A9 [4] = target: T1, UGT1A9 (Homo sapiens, UniProt O60656); settings: cited from earlier work
T1 sequence (O60656 26-530): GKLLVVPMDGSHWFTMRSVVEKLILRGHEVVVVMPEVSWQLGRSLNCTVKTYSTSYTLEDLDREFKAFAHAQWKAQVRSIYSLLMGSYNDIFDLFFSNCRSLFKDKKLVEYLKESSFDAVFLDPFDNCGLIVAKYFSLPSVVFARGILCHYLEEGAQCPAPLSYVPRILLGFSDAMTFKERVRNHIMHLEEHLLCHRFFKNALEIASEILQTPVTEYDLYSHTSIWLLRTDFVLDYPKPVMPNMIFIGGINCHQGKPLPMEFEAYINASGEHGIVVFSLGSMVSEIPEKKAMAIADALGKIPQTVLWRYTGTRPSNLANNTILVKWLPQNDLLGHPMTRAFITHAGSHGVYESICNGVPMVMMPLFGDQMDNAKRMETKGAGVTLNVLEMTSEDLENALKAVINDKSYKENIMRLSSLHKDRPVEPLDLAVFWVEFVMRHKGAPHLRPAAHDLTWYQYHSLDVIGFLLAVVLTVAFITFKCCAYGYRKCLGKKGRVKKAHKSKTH

UGT2B10 [5] = settings: cited from earlier work
UGT1A1 [6] = settings: cited from earlier work
UGT2B10 [7] = settings: cited from earlier work; remark: listed apart in the source
human liver microsomes = test: Inhibition of HONH-AαC glucuronidation in human liver microsomes; assay type: biochemical; settings: niflumic acid 0.1-2.5 μM, HONH-AαC 1 μM
[8] = system: other UGT1A and UGT2B isoforms; settings: cited from earlier work
human kidney microsomes [9] = test: Inhibition of HONH-AαC glucuronidation in human kidney microsomes; assay type: biochemical; settings: niflumic acid 0.1-2.5 μM, HONH-AαC 1 μM
UGT1A9 [10] = target: T1, UGT1A9; test: Inhibition of propofol glucuronidation in human liver microsomes; assay type: biochemical; settings: niflumic acid 0.1-2.5 μM, propofol 100 μM
UGT1A1 [11] = test: Inhibition of estradiol-3-O-Gluc formation in human liver microsomes; assay type: biochemical; settings: niflumic acid 0.1-2.5 μM, estradiol 25 μM
rodents = settings: cited from earlier work

SMILES: Nc1ccc2c(n1)[nH]c1ccccc12 [AαC, 2-Amino-9H-pyrido[2,3-b]indole]
- mutations and early biomarkers of neoplasia (mice; colon of mice): induces lacI mutations and aberrant crypt foci
- tumor induction (mice; mice): induces liver and blood vessel tumors
- rate of P450-mediated N-oxidation (human kidney microsomes [1]): very low

SMILES: O=C(O)[C@H]1O[C@@H](ONc2ccc3c(n2)[nH]c2ccccc23)[C@H](O)[C@@H](O)[C@@H]1O [AαC-HN^2-O-Gluc, O-(β-D-glucosidurony1)-2-hydroxyamino-9H-pyrido[2,3-b]indole]
- half-life [2]: exceeds 6 h

SMILES: O=C(O)[C@H]1O[C@@H](N(O)c2ccc3c(n2)[nH]c2ccccc23)[C@H](O)[C@@H](O)[C@@H]1O [AαC-HON^2-Gluc, N^2-(β-D-glucosidurony1)-2-hydroxyamino-9H-pyrido[2,3-b]indole]
- DNA adduct formation (dG-C8-AαC / dG-C8-PhIP) (calf thymus DNA): considerably lower than HONH-AαC

SMILES: ONc1ccc2c(n1)[nH]c1ccccc12 [HONH-AαC, 2-hydroxyamino-9H-pyrido[2,3-b]indole]
- principal Gluc conjugate formed [3]: AαC-HN^2-O-Gluc
- predominant Gluc conjugate formed ([3]; 20 min): AαC-HON^2-Gluc
- Km (UGT1A9 [4]): 6.3 µM
- DNA adduct formation (dG-C8-AαC / dG-C8-PhIP) (calf thymus DNA): comparable levels

SMILES: Cn1c(NO)nc2ncc(-c3ccccc3)cc21 [HONH-PhIP, 2-hydroxyamino-1-methyl-6-phenylimidazo[4,5-b]pyridine]
- Km (UGT2B10 [5]): 58 µM
- Km (UGT1A1 [6]): 19 µM
- Km (UGT1A9 [4]): 36 µM
- DNA adduct formation (dG-C8-AαC / dG-C8-PhIP) (calf thymus DNA): comparable levels

- inhibition of glucuronidation of propofol (UGT1A9 substrate) (UGT1A9 [10]): effective in inhibiting
SMILES: O=C(O)c1cccnc1Nc1cccc(C(F)(F)F)c1 [Niflumic acid, niflumic acid]
- effect on UGT2B10 activity (UGT2B10 [7]): does not alter
- effect on AαC-HN^2-O-Gluc formation (human liver microsomes): concentration-dependent inhibition
- effect on AαC-HON^2-Gluc formation (human liver microsomes): unchanged
- effect on activities of other UGT1A and UGT2B isoforms [8]: little effect
- effect on AαC-HN^2-O-Gluc formation (human kidney microsomes [9]): greatly decreased
- effect on AαC-HON^2-Gluc formation (human kidney microsomes [9]): greatly decreased
- effect on formation of estradiol-3-O-Gluc (UGT1A1) (UGT1A1 [11]): unaffected

SMILES: Cn1c(N)nc2ncc(-c3ccccc3)cc21 [PhIP, 2-amino-1-methyl-6-phenylimidazo[4,5-b]pyridine]
- rate of P450-mediated N-oxidation (human kidney microsomes [1]): very low
- cancer induction (rodents): induces lymphoma, pancreatic, colorectal, and prostate cancers

SMILES: Cn1c(NO[C@@H]2O[C@H](C(=O)O)[C@@H](O)[C@H](O)[C@H]2O)nc2ncc(-c3ccccc3)cc21 [PhIP-HN^2-O-Gluc, O-(β-D-glucosidurony1)-2-hydroxyamino-1-methyl-6-phenylimidazo[4,5-b]pyridine]
- DNA adduct formation (dG-C8-AαC / dG-C8-PhIP) (calf thymus DNA): higher amounts of dG-C8-PhIP than HONH-PhIP

SMILES: Cn1c(N(O)[C@@H]2O[C@H](C(=O)O)[C@@H](O)[C@H](O)[C@H]2O)nc2ncc(-c3ccccc3)cc21 [PhIP-HON^2-Gluc, N^2-(β-D-glucosidurony1)-2-hydroxyamino-1-methyl-6-phenylimidazo[4,5-b]pyridine]
- DNA adduct formation (dG-C8-AαC / dG-C8-PhIP) (calf thymus DNA): not detected
